In test [1] the target is T1, MYT1 protein (Homo sapiens (Human), UniProt Q99640). The experiment in a line: MYT1 kinase activity inhibition test (ELISA, phosphorylation of Y15 of CDK1). The following applies: phosphorylation level of Y15 of CDK1 protein caused by MYT1 protein, 60 minutes. The format is biochemical. The protocol:
The MYT1 kinase activity inhibitory capacity of each compound was evaluated by evaluating the phosphorylation level of Y15 of CDK1 protein caused by MYT1 protein, by ELISA. The kit of CycLex Weel Kinase Assay/Inhibitor Screening Kit Ver. 3 (manufactured by MBL, CY-1172V3) was used. Using Kinase Buffer, 10 μL of 5 nM MYT1 protein (manufactured by Carna Biosciences, Inc.) was prepared. In addition, 30 μL of 83.3 μM of ATP was prepared using Kinase Buffer. In addition, 10 μL of each compound was diluted to each concentration using Kinase Buffer. 30 μL of ATP was added to the plate of the kit, and thereafter, 10 μL of each compound was added thereto. Further, 10 μL of the diluted MYT1 protein solution was added thereto, and then the mixture was mixed, which was allowed to stand at room temperature for 60 minutes. The reaction solution was removed from each well, and each well was washed using Wash Buffer. After Wash Buffer was removed, 100 μL of HRP conjugated Anti-phospho-tyrosine antibody was added to each well, which was allowed to stand at room temperature for 60 minutes. Thereafter, the reaction solution was removed from each well, and each well was washed using Wash Buffer. After Wash Buffer was removed, 100 μL of Substrate Reagent was added to each well, which was allowed to stand at room temperature for 8 minutes. Thereafter, 100 μL of Stop Solution (1 N sulfuric acid) was added to each well according to the manual. Absorbances at 450 nm and 590 nm were measured using Envision (manufactured by PerkinElmer). The phosphorylation level of CDK1 protein was evaluated for each well by subtracting the absorbance at 590 nm from the absorbance at 450 nm. The inhibition rate of each compound added at each concentration was calculated by setting the signal when the compound was not added as 100% and the signal when MYT1 protein was not added as 0%, and the calculation results of IC50 were shown in Table 4.

The target of test [2] is T1, MYT1 protein. The experiment in a line: Test for binding to ATP binding site of MYT1 (Kinase Tracer 178 / Eu-Anti-GST antibody TR-FRET). The following applies: ATP binding site of MYT1, 30 minutes at room temperature.
In a further test the test system is LU65. The experiment in a line: Cytotoxicity test with pemetrexed upon addition of each example compound (CellTiter-Glo). Type of test: cell-based, human. Particulars: combination with pemetrexed, LU65 cells, 7 days; maximum value, at the MYT1 inhibitor and pemetrexed concentrations. As for the experimental part: LU65 (received from human tissue bank (JCRB Cell Bank)) was used in the evaluation of the present invention. LU65 is a lung cancer cell line having a truncated deletion mutation of S82* in RB1 gene (see Nature. 2019 May; 569(7757): 503-508. (Non Patent Literature 22)), in which the function of RB1 is decreased. The cell culture was carried out using RPMI-1640 (manufactured by SIGMA) containing 10% FBS (manufactured by SIGMA).
Each pemetrexed (manufactured by Tokyo Kasei Kogyo Co., Ltd.) and each example compound of each concentration were diluted using a DMSO solution, and 0.04 μL of each of series of dilution and DMSO was added to each well of cell culture plate using Echo 555 Liquid Handler (manufactured by Beckman Coulter Inc.). 1000 LU65 cells ([…]) were added to each well, which was cultured at 37° C. in a 5% CO2 incubator for 7 days. Intracellular ATP level which is a cell survival marker was measured and used in the monitoring of cell number. After culturing, 20 μL of CellTiter-Glo (registered trademark) 2.0 (manufactured by Promega) was added to each well, and the emission intensity was measured using Multimode Plate Reader En Vision (registered trademark) Xcite (manufactured by PerkinElmer). The cell survival rate under each condition was calculated by setting the value obtained by subtracting the luminescence of the cell unseeded well from the luminescence of the DMSO-added well as 100%, and calculating the proportion of a value obtained by subtracting the luminescence of the cell unseeded well from the luminescence detected at each well.
In addition, the cytotoxic activity under each condition was calculated by subtracting the survival rate in a combination of pemetrexed of each treatment concentration and each example compound of each treatment concentration, from 100%.

Some results are limits rather than exact numbers.

T1 sequence (Q99640 whole entry): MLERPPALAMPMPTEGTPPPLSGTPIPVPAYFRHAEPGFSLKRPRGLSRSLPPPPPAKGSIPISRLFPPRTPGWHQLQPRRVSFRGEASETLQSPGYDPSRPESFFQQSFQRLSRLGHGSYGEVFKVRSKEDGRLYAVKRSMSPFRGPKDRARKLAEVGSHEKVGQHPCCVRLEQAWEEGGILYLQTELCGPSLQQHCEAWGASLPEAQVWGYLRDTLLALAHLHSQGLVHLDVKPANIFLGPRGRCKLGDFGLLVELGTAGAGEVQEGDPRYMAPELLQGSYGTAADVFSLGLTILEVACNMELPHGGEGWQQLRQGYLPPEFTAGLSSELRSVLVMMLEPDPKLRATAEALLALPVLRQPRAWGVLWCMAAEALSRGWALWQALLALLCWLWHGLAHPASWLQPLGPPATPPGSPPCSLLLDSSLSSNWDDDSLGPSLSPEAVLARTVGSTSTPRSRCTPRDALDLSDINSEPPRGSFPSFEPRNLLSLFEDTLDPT

In turn, `CCOc1cc2c(-c3cc(F)c(F)c4[nH]ncc34)c(N)c(=O)[nH]c2c2cccnc12` [Compound C67, 3-Amino-4-(6,7-difluoro-1H-indazol-4-yl)-6-ethoxy-1H-1,7-phenanthrolin-2-one] showed an IC50 against MYT1 protein [1] of 0.1 nM. At MYT1 protein [2], this molecule showed an IC50 of 2.4 nM. Also, in the test on LU65, the “Bliss Score (Max)” value is 77% and the “HSA Score (MAX)” value came to 79%.
Turning to `CC(C)Oc1cc2c(-c3cc(F)c(F)c4[nH]ncc34)c(N)c(=O)[nH]c2c2cccnc12` [Compound C69, 3-Amino-4-(6,7-difluoro-1H-indazol-4-yl)-6-propan-2-yloxy-1H-1,7-phenanthrolin-2-one], at MYT1 protein [1], 0.1 nM corresponded to half-maximal inhibition (IC50). In addition, the IC50 at MYT1 protein [2] is 2 nM. In the test with LU65, the “Bliss Score (Max)” value was 66% and the “HSA Score (MAX)” value stood at 69%.
The corresponding values for `COc1cc2c(-c3cc(F)c(Cl)c4[nH]ncc34)c(N)c(=O)[nH]c2c2cccnc12` [Compound C76, 3-Amino-4-(7-chloro-6-fluoro-1H-indazol-4-yl)-6-methoxy-1H-1,7-phenanthrolin-2-one] are 0.092 nM, 1.5 nM, 68% and 67%.
On MYT1 protein [1], `Nc1c(-c2ccc(F)c3[nH]ncc23)c2cc(Cl)c3ncccc3c2[nH]c1=O` [Compound C78, 3-Amino-6-chloro-4-(7-fluoro-1H-indazol-4-yl)-1H-1,7-phenanthrolin-2-one] returned an IC50 below 0.17 nM. Also, on MYT1 protein [2], the IC50 was determined as 3.1 nM. Further, in the test with LU65, the “Bliss Score (Max)” value stood at 53% and the “HSA Score (MAX)” value was found to be 66%.
On MYT1 protein [1], `Nc1c(-c2ccc(F)c3[nH]ncc23)c2ccc3ncccc3c2[nH]c1=O` [Compound C83, 3-Amino-4-(7-fluoro-1H-indazol-4-yl)-1H-1,7-phenanthrolin-2-one] had an IC50 of 0.2 nM. The molecule further returned an IC50 on MYT1 protein [2] of 2.4 nM. Moreover, in the test with LU65, the “Bliss Score (Max)” value was determined as 54% and the “HSA Score (MAX)” value stood at 66%.
The corresponding values for `Nc1c(-c2ccc(F)c3[nH]ncc23)c2cc(C3CC3)c3ncccc3c2[nH]c1=O` [Compound C84, 3-amino-6-cyclopropyl-4-(7-fluoro-1H-indazol-4-yl)-1H-1,7-phenanthrolin-2-one] are 0.25 nM, 2.3 nM, 68% and 70%.
Consider `Cc1cc2c(-c3ccc(F)c4[nH]ncc34)c(N)c(=O)[nH]c2c2cccnc12` [Compound C85, 3-amino-4-(7-fluoro-1H-indazol-4-yl)-6-methyl-1H-1,7-phenanthrolin-2-one], for which the IC50 turned out to be 0.19 nM against MYT1 protein [1] and 2.5 nM at MYT1 protein [2]. Further, the “Bliss Score (Max)” value in the test with LU65 is recorded as 59%. The “HSA Score (MAX)” value in the test with LU65 was 58%.
The corresponding values for `CCc1cc2c(-c3ccc(F)c4[nH]ncc34)c(N)c(=O)[nH]c2c2cccnc12` [Compound C86, 3-Amino-6-ethyl-4-(7-fluoro-1H-indazol-4-yl)-1H-1,7-phenanthrolin-2-one] are below 0.17 nM, 4.6 nM, 67% and 71%.
The corresponding values for `Cn1cc(-c2cc3c(-c4ccc(F)c5[nH]ncc45)c(N)c(=O)[nH]c3c3cccnc23)cn1` [Compound C88, 3-Amino-4-(7-fluoro-1H-indazol-4-yl)-6-(1-methylpyrazol-4-yl)-1H-1,7-phenanthrolin-2-one] are below 0.17 nM, 4.4 nM, 53% and 61%.
The corresponding values for `CC#Cc1cc2c(-c3ccc(F)c4[nH]ncc34)c(N)c(=O)[nH]c2c2cccnc12` [Compound C90, 3-Amino-4-(7-fluoro-1H-indazol-4-yl)-6-prop-1-inyl-1H-1,7-phenanthrolin-2-one] are 0.42 nM, 14 nM, 50% and 60%.

The values above are taken from patent US20260062412A1, “NITROGEN-CONTAINING HETEROCYCLIC COMPOUND HAVING MYT1 INHIBITORY ACTIVITY” (CHUGAI SEIYAKU KABUSHIKI KAISHA, priority 2023, published 2026).
